This is an account of results in ChEMBL document CHEMBL1201862, “PubChem BioAssay data set” (2004).

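Briefly, cells in 96-well plates were exposed to five compound concentrations for 48 h, and endpoints were estimated by linear interpolation. At the GI50, growth is halved.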 Activity calls are given as the source filed them. Rule as the data show it: active = GI50 up to about 1.1 µM and inactive = higher.

Test systems include A498; ACHN; DU-145; EKVX; HCT-15; MDA-MB-435; MOLT-4; NCI-H226; NCI-H23; NCI-H460; OVCAR-8; SF-539; SK-MEL-28; SK-MEL-5; SNB-19; SNB-75; SR; TK-10; SW-620.
Holding throughout (assay): NCI anticancer screen, dose series, 48 h

Consider `CC(=O)O[C@H]1C(=O)N(c2cc3c4ccccc4ccc3c3ccccc23)[C@@H]1c1ccccc1`, for which the GI50 is 21.8 µM (inactive) in the assay on A498; 6.38 µM (inactive) in the assay with ACHN; 14.5 µM (inactive) in the assay with DU-145; 14.6 µM (inactive) with EKVX; 3.85 µM in the assay with HCT-15; 1.61 µM (inactive) in the assay with MDA-MB-435. For the same compound, the GI50 in the assay with MOLT-4 is 7.69 µM (inactive); in the assay with NCI-H226, 3.33 µM (inactive); with NCI-H23, 5.51 µM (inactive); in the assay on NCI-H460 it was 4.31 µM (inactive); in the assay with OVCAR-8 it was 3.97 µM (inactive); in the assay with SF-539 it was 3.89 µM (inactive). Also, the GI50 with SK-MEL-28 was 10.4 µM (inactive); with SK-MEL-5, 3.24 µM (inactive); in the assay on SNB-19 it was 6.79 µM (inactive); in the assay on SNB-75 it was 2 µM (inactive); in the assay with SR, 1.6 µM (inactive); with TK-10 it was 12.8 µM (inactive).
For `OC(C1=C/C(=C\c2ccncc2)c2ccccc21)c1ccncc1` (stereo not given), the GI50 is 12.9 µM (inactive) in the assay with A498; 14.8 µM (inactive) in the assay with ACHN; 17 µM (inactive) in the assay on DU-145; 5.65 µM (inactive) in the assay on EKVX; 16.5 µM with HCT-15; 12 µM (inactive) in the assay with MDA-MB-435. Further, the GI50 with MOLT-4 was 5.71 µM (inactive); in the assay on NCI-H226, 13.6 µM (inactive); with NCI-H23, 12.4 µM (inactive); in the assay on NCI-H460, 12.9 µM (inactive); in the assay with OVCAR-8, 22.2 µM (inactive); with SF-539 it was 13.9 µM (inactive). In addition, the GI50 was 14.3 µM (inactive) with SK-MEL-28; 3.21 µM (inactive) in the assay with SK-MEL-5; 19.1 µM (inactive) with SNB-19; 5.85 µM (inactive) in the assay on SNB-75; 5.4 µM (inactive) with SR; 23 µM (inactive) in the assay with SW-620. Also, in the assay with TK-10, the GI50 was 13.6 µM (inactive).
Consider `COc1cc2c(/C=C3/C(=O)N(C)c4ccc(O)cc43)c(Cl)[nH]c2cc1C`, for which the GI50 with A498 is 2.06 µM (inactive); with ACHN, 0.532 µM (active); in the assay with DU-145 it was 0.655 µM (active); with EKVX it was 1.57 µM (inactive); with HCT-15, 0.426 µM; in the assay on MDA-MB-435, 0.0284 µM (active). Besides, the GI50 in the assay with MOLT-4 was 0.209 µM (active); in the assay with NCI-H226 it was 0.516 µM (active); with NCI-H23 it was 0.329 µM (active); in the assay on NCI-H460, 0.454 µM (active); with OVCAR-8, 0.597 µM (active); with SF-539 it was 0.248 µM (active). Further, the GI50 with SK-MEL-28 was 2.22 µM (inactive); with SK-MEL-5, 0.282 µM (active); with SNB-19 it was 0.456 µM (active); in the assay on SNB-75, 0.439 µM (active); with SR, 0.133 µM (active); with SW-620, 0.361 µM (active). The GI50 in the assay with TK-10 was 2.81 µM (inactive).
For the compound `Cc1nc2ccc(F)cc2c(Cl)c1CCCl`, the GI50 with A498 was 63.1 µM (inactive); with ACHN, 78.7 µM (inactive); with DU-145, 44.8 µM (inactive); in the assay with EKVX it was 13.9 µM (inactive); in the assay with HCT-15, 34.3 µM; in the assay on MDA-MB-435, 26.9 µM (inactive). Moreover, the GI50 with MOLT-4 is 21.3 µM (inactive); with NCI-H226 it was 54.1 µM (inactive); in the assay with NCI-H23 it was 42.3 µM (inactive); in the assay on NCI-H460 it was 30.5 µM (inactive); with OVCAR-8, 49.3 µM (inactive); with SF-539 it was 67.3 µM (inactive). Also, the GI50 with SK-MEL-28 was 40.3 µM (inactive); in the assay with SK-MEL-5 it was 22 µM (inactive); with SNB-19 it was 36.4 µM (inactive); with SNB-75, 72.6 µM (inactive); in the assay with SR, 19.9 µM (inactive); in the assay on SW-620, 39.5 µM (inactive). The GI50 with TK-10 was 62.8 µM (inactive).
`O=C(N/N=C\c1cccc2c([N+](=O)[O-])cccc12)Nc1ccccc1`: the GI50 in the assay on A498 was 16.5 µM (inactive); in the assay on ACHN it was 14.2 µM (inactive); in the assay on DU-145, 26.9 µM (inactive); with EKVX it was 15.5 µM (inactive); in the assay with HCT-15 it was 11.2 µM; in the assay on MDA-MB-435, 9.29 µM (inactive). Further, the GI50 with MOLT-4 is 13.4 µM (inactive); in the assay on NCI-H226 it was 13.6 µM (inactive); with NCI-H23 it was 15.8 µM (inactive); in the assay with NCI-H460, 14.2 µM (inactive); in the assay on OVCAR-8, 12 µM (inactive); with SF-539, 11.5 µM (inactive). Moreover, the GI50 in the assay with SK-MEL-28 was 16.4 µM (inactive); in the assay on SK-MEL-5, 14.1 µM (inactive); with SNB-19, 14.6 µM (inactive); in the assay with SNB-75 it was 22.3 µM (inactive); in the assay with SR, 11.3 µM (inactive); with SW-620, 13.2 µM (inactive). In the assay on TK-10, the GI50 was 11.7 µM (inactive).
Regarding `Cc1cccc2c(=O)c3c(O)cc(O)cc3n(C)c12`, the GI50 in the assay with A498 was 7.29 µM (inactive); with ACHN, > 100 µM (inactive); with DU-145, > 100 µM (inactive); in the assay on EKVX, 7.41 µM (inactive); in the assay on HCT-15, more than 100 µM; with MDA-MB-435, > 100 µM (inactive). Also, the GI50 in the assay on MOLT-4, in the assay with NCI-H226, in the assay on NCI-H23, in the assay on NCI-H460, with OVCAR-8 and in the assay on SF-539 was > 100 µM (inactive) throughout. The GI50 with SK-MEL-28 is > 100 µM (inactive); in the assay on SK-MEL-5 it was > 100 µM (inactive); with SNB-19, > 100 µM (inactive); with SNB-75 it was 85.7 µM (inactive); with SR it was > 100 µM (inactive); in the assay on SW-620, > 100 µM (inactive). Also, the GI50 in the assay with TK-10 was > 100 µM (inactive).
Turning to `CCN(CC)CCn1c2cc3c(cc2c(=O)c2cccnc21)OCO3`, the GI50 with A498 is 3.91 µM (inactive); in the assay on ACHN, 3.52 µM (inactive); with DU-145, > 10 µM (inactive); in the assay with EKVX it was 5.14 µM (inactive); in the assay on HCT-15, 3.72 µM; with MDA-MB-435 it was 4.71 µM (inactive). The GI50 in the assay on MOLT-4 is 3.68 µM (inactive); with NCI-H226, 5.01 µM (inactive); in the assay with NCI-H23, 8.75 µM (inactive); in the assay on NCI-H460, 3.06 µM (inactive); with OVCAR-8, 4.62 µM (inactive); in the assay on SF-539, 4.92 µM (inactive). For the same compound, the GI50 in the assay on SK-MEL-28 was 7.91 µM (inactive); in the assay with SK-MEL-5, 2.77 µM (inactive); in the assay on SNB-19, 8.07 µM (inactive); in the assay on SNB-75, 3.83 µM (inactive); in the assay with SR, 4.34 µM (inactive); with SW-620, 4.26 µM (inactive). The GI50 in the assay on TK-10 is 6.01 µM (inactive).
As for `COc1ccc2cc(CNCCCN3CCN(CCCNCc4ccc5cc(OC)ccc5c4)CC3)ccc2c1`, the GI50 with A498 is 1.66 µM (inactive); in the assay with ACHN, 1.8 µM (inactive); with DU-145, 1.54 µM (inactive); with EKVX, 1.73 µM (inactive); in the assay on HCT-15, 1.57 µM; in the assay on MDA-MB-435, 1.6 µM (inactive). For the same compound, the GI50 in the assay on MOLT-4 is 0.859 µM (active); in the assay on NCI-H226, 1.91 µM (inactive); in the assay with NCI-H23, 1.91 µM (inactive); in the assay on NCI-H460 it was 0.83 µM (active); in the assay on OVCAR-8, 1.73 µM (inactive); in the assay on SF-539, 1.81 µM (inactive). Also, the GI50 is 1.71 µM (inactive) with SK-MEL-28; 1.69 µM (inactive) with SK-MEL-5; 1.76 µM (inactive) in the assay with SNB-19; 1.62 µM (inactive) in the assay with SNB-75; 0.333 µM (active) with SR; 0.327 µM (active) in the assay with SW-620. Further, the GI50 in the assay with TK-10 is 1.89 µM (inactive).
Consider `Cc1c(C)c(C)c(-n2c(=O)n(C)c(=O)n2-n2c(=O)n(C)c(=O)n2-c2c(C)c(C)c(C)c(C)c2C)c(C)c1C`, for which the GI50 in the assay with A498 was > 100 µM (inactive); in the assay on DU-145 it was > 100 µM (inactive); in the assay on EKVX, > 100 µM (inactive); in the assay with HCT-15, more than 100 µM; in the assay with MDA-MB-435, > 100 µM (inactive); in the assay with MOLT-4 it was 40 µM (inactive). Moreover, the GI50 with NCI-H226 was 37.8 µM (inactive); in the assay with NCI-H460, > 100 µM (inactive); in the assay with OVCAR-8 it was > 100 µM (inactive); with SF-539, > 100 µM (inactive); in the assay on SK-MEL-28, > 100 µM (inactive); in the assay on SK-MEL-5, > 100 µM (inactive). Moreover, the GI50 was > 100 µM (inactive) in the assay with SNB-19; > 100 µM (inactive) in the assay on SNB-75; 20.5 µM (inactive) with SR; > 100 µM (inactive) in the assay with SW-620; > 100 µM (inactive) with TK-10.
Take `CN1c2ccc(O)c(O)c2-c2cc(O)cc3c2C1CCC3` (stereo not given): the GI50 was > 76.2 µM (inactive) in the assay on A498; 16.7 µM (inactive) in the assay on ACHN; 16 µM (inactive) in the assay on DU-145; 20.7 µM (inactive) in the assay on EKVX; 20.6 µM in the assay on HCT-15; 15.6 µM (inactive) in the assay with MDA-MB-435. Further, the GI50 with MOLT-4 is 7.4 µM (inactive); with NCI-H226, 27.9 µM (inactive); with NCI-H23, 22.9 µM (inactive); with NCI-H460, 23.9 µM (inactive); with OVCAR-8 it was 19.1 µM (inactive); in the assay on SF-539, 21.6 µM (inactive). The GI50 in the assay with SK-MEL-28 was 20.8 µM (inactive); in the assay on SK-MEL-5, 15.7 µM (inactive); in the assay with SNB-19 it was 63.5 µM (inactive); in the assay with SNB-75 it was 16.3 µM (inactive); with SR, 7 µM (inactive); with SW-620, 17.5 µM (inactive). Also, in the assay with TK-10, the GI50 was 18 µM (inactive).
On to `CC[C@H](C)[C@H]1NC(=O)[C@@H](NC(=O)[C@@H](CC(C)C)N(C)C(=O)C2CCCN2C(=O)[C@H](C)O)[C@@H](C)OC(=O)[C@@H]2Cc3ccccc3CN2C(=O)[C@@H]2CCCN2C(=O)[C@H](CC(C)C)NC(=O)[C@@H](C)C(=O)[C@H](C(C)C)OC(=O)C[C@@H]1O` (stereo not given in full), for which the GI50 with A498 is 0.871 µM (active); with ACHN, 1.55 µM (inactive); in the assay on DU-145, 0.341 µM (active); with EKVX it was 2.52 µM (inactive); in the assay on HCT-15, more than 47.2 µM; with MDA-MB-435 it was 0.374 µM (active). Besides, the GI50 in the assay with MOLT-4 was 0.17 µM (active); with NCI-H226, 1.6 µM (inactive); in the assay with NCI-H460 it was 0.171 µM (active); in the assay on OVCAR-8 it was 1.1 µM (active); in the assay on SF-539, 0.267 µM (active); with SK-MEL-28, 0.231 µM (active). Besides, the GI50 in the assay with SK-MEL-5 was 0.164 µM (active); with SNB-19, 0.207 µM (active); with SNB-75, 0.121 µM (active); in the assay on SR it was 0.0811 µM (active); with SW-620, 0.555 µM (active); in the assay on TK-10, 2.62 µM (inactive).
